From patent publication US20050026950A1, “Methods of therapeutic treatment using retinoids to achieve consistent bioavailability” (Allergan, Inc., priority 2003, published 2005)

Legend:
Type in all cases: in vivo, human
[1] = Phase 3 studies of orally administered tazarotene for psoriasis, adverse event monitoring; conditions: Taz 4.5 mg
Protocol: A series of Phase 3 studies are conducted on orally administered tazarotene for the treatment of psoriasis. Adverse events (side effects) are monitored. In addition, published data for acitretin's side effects are also considered.

[2] = Two placebo-controlled dose-ranging safety studies of oral tazarotene in nodulocystic acne
Protocol: Two placebo-controlled dose-ranging studies are conducted to evaluate the safety of oral tazarotene in patients having nodulocystic acne. In the first study, patients receive orally administered tazarotene at daily doses of 0.4 mg to 2.8 mg in 96 (71+25) patients (12 weeks treatment plus 12 weeks post-treatment). In the second study, daily doses of 0.75 mg to 6 mg tazarotene are administered to 181 patients (24 weeks treatment plus 12 weeks post-treatment).

[3] = PK and PD interaction studies of oral tazarotene and oral contraceptives in healthy volunteers; conditions: orally, up to 6 mg once daily
Protocol: It is the objective of this study to determine if there are pharmacokinetic (PK) and pharmacodynamic (PD) interactions between tazarotene and commonly prescribed oral contraceptives (OCs) when coadministered together.
Three separate clinical studies are conducted to evaluate the PK and PD interactions of oral tazarotene and OCs in healthy volunteers. Two studies evaluate daily doses of norethindrone (NE)/ethinyl estradiol (EE) with daily doses of tazarotene 1.1 mg (N=27) and 6 mg (N=29). The third study assesses the daily doses of norgestimate (NGM)/EE with daily doses of tazarotene 6 mg (N=26). OCs are administered for three consecutive menstrual cycles. Daily doses of tazarotene are started during the 2nd cycle and continued through the end of the studies. PK parameters for EE, NE, and NGM (AUC0-24 and Cmax) are determined before tazarotene dosing and after tazarotene dosing on day 6 of the 2nd and 3rd cycles. Serum concentrations of luteinizing hormone (LH) and follicle-stimulating hormone (FSH)-markers of contraceptive efficacy are also evaluated before tazarotene dosing and after tazarotene dosing on days 2, 4, and 6 of the 2nd and 3rd cycles. Serum progesterone levels are assessed on days 18 and 20 of the 2nd and 3rd cycles. […]

[4] = Study 3, treated 3 months (N = 220)
[5] = Study 3, treated 6 months (N = 92)
[6] = combined data from Studies 1 and 2 (N = 348)

With `CCOC(=O)c1ccc(C#Cc2ccc3c(c2)C(C)(C)CCS3)nc1` [tazarotene] the Alopecia [1, 4] was 1 (0.5) number (%) of patients, the Arthralgia [1, 4] was 28 (12.7) number (%) of patients and the Atrophy of skin [1, 4] was 0 (0.0) number (%) of patients. For the same compound, the Back pain [1, 4] was 7 (3.2) number (%) of patients, the Cheilitis [1, 4] was 149 (67.7) number (%) of patients and the “Dry Skin” value [1, 4] was 47 (21.4) number (%) of patients. The “Dry mouth/Oral dryness” value [1, 4] was 11 (5.0) number (%) of patients, the Epistaxis [1, 4] was 1 (0.5) number (%) of patients and the “Erythematous rash/Erythema” value [1, 4] was 0 (0.0) number (%) of patients. For the same compound, the Hyperesthesia [1, 4] was 0 (0.0) number (%) of patients, the “Nail Disorder” value [1, 4] was 1 (0.5) number (%) of patients and the Paresthesia [1, 4] was 3 (1.4) number (%) of patients. For the same compound, the Paronychia/Nail disorder [1, 4] was 1 (0.5) number (%) of patients, the Pruritus [1, 4] was 11 (5.0) number (%) of patients and the Rhinitis [1, 4] was 0 (0.0) number (%) of patients. The Rigors/Chills [1, 4] was 1 (0.5) number (%) of patients, the “Skin peeling/Desquamation” value [1, 4] was 3 (1.4) number (%) of patients and the “Sticky skin/Skin disorder” value [1, 4] was 0 (0.0) number (%) of patients. For the same compound, the Xerophthalmia/Eye disorder [1, 4] was 3 (1.4) number (%) of patients, the Alopecia [1, 5] was 5 (5.4) number (%) of patients and the Arthralgia [1, 5] was 30 (32.6) number (%) of patients. For the same compound, the Atrophy of skin [1, 5] was 0 (0.0) number (%) of patients, the Back pain [1, 5] was 10 (10.9) number (%) of patients and the Cheilitis [1, 5] was 65 (70.7) number (%) of patients. For the same compound, the “Dry Skin” value [1, 5] was 24 (26.1) number (%) of patients, the “Dry mouth/Oral dryness” value [1, 5] was 2 (2.2) number (%) of patients and the Epistaxis [1, 5] was 0 (0.0) number (%) of patients. The “Erythematous rash/Erythema” value [1, 5] was 0 (0.0) number (%) of patients, the Hyperesthesia [1, 5] was 0 (0.0) number (%) of patients and the “Nail Disorder” value [1, 5] was 1 (1.1) number (%) of patients. For the same compound, the Paresthesia [1, 5] was 1 (1.1) number (%) of patients, the Paronychia/Nail disorder [1, 5] was 1 (1.1) number (%) of patients and the Pruritus [1, 5] was 3 (3.3) number (%) of patients. For the same compound, the Rhinitis [1, 5] was 0 (0.0) number (%) of patients, the Rigors/Chills [1, 5] was 1 (1.1) number (%) of patients and the “Skin peeling/Desquamation” value [1, 5] was 1 (1.1) number (%) of patients. For the same compound, the “Sticky skin/Skin disorder” value [1, 5] was 0 (0.0) number (%) of patients, the Xerophthalmia/Eye disorder [1, 5] was 1 (1.1) number (%) of patients and the Alopecia [1, 6] was 1 (0.3) number (%) of patients. The Arthralgia [1, 6] was 60 (17.2) number (%) of patients, the Atrophy of skin [1, 6] was 0 (0.0) number (%) of patients and the Back pain [1, 6] was 16 (4.6) number (%) of patients. For the same compound, the Cheilitis [1, 6] was 228 (65.5) number (%) of patients, the “Dry Skin” value [1, 6] was 82 (23.6) number (%) of patients and the “Dry mouth/Oral dryness” value [1, 6] was 11 (3.2) number (%) of patients. The Epistaxis [1, 6] was 2 (0.6) number (%) of patients, the “Erythematous rash/Erythema” value [1, 6] was 2 (0.6) number (%) of patients and the Hyperesthesia [1, 6] was 0 (0.0) number (%) of patients. The “Nail Disorder” value [1, 6] was 2 (0.6) number (%) of patients, the Paresthesia [1, 6] was 7 (2.0) number (%) of patients and the Paronychia/Nail disorder [1, 6] was 2 (0.6) number (%) of patients. The Pruritus [1, 6] was 21 (6.0) number (%) of patients, the Rhinitis [1, 6] was 8 (2.3) number (%) of patients and the Rigors/Chills [1, 6] was 9 (2.6) number (%) of patients. The “Skin peeling/Desquamation” value [1, 6] was 3 (0.9) number (%) of patients, the “Sticky skin/Skin disorder” value [1, 6] was 1 (0.3) number (%) of patients and the Xerophthalmia/Eye disorder [1, 6] was 8 (2.3) number (%) of patients. The “changes in urinalysis, chemistry, or hematology measures (liver function tests, triglycerides, total and HDL cholesterol)” value ([2]; 0.4 mg to 6 mg daily) was “no consistent dose-related clinically significant changes”, the “ligament calcification, osteophyte formation, serum bone alkaline phosphatase, amino terminal telopeptides, bone density” value ([2]; 0.4 mg to 6 mg daily) was “not associated with any clinically significant” and the incidence of arthralgia ([2]; 2.8 mg, n=11, treatment period) was 9%. For the same compound, the incidence of asthenia ([2]; 2.8 mg, n=11, treatment period) was 0%, the incidence of cheilitis ([2]; 2.8 mg, n=11, treatment period) was 64% and the “incidence of dry skin” value ([2]; 2.8 mg, n=11, treatment period) was 18%. For the same compound, the incidence of headache ([2]; 2.8 mg, n=11, treatment period) was 9%, the “incidence of joint disorder” value ([2]; 2.8 mg, n=11, treatment period) was 27% and the incidence of myalgia ([2]; 2.8 mg, n=11, treatment period) was 0%. The severe dry skin ([2]; 3 mg and 6 mg groups) was “No patient has severe dry skin”, the “Emotional lability, patients” value ([2]; 3 mg group) was 3% and the mild cheilitis ([2]; 3 mg group) was 25 patients. It also gave a mild dry skin ([2]; 3 mg group) of 11 patients, a moderate cheilitis ([2]; 3 mg group) of 3 patients and a moderate dry skin ([2]; 3 mg group) of 2 patient. For the same compound, the severe cheilitis ([2]; 3 mg group) was 1 patient, the “Depression, patients” value ([2]; 3 mg group (2 mild, 1 severe)) was 8% and the incidence of arthralgia ([2]; 3 mg, n=37, treatment period) was 8%. For the same compound, the incidence of asthenia ([2]; 3 mg, n=37, treatment period) was 19%, the incidence of cheilitis ([2]; 3 mg, n=37, treatment period) was 78% and the “incidence of dry skin” value ([2]; 3 mg, n=37, treatment period) was 35%. For the same compound, the incidence of headache ([2]; 3 mg, n=37, treatment period) was 19%, the “incidence of joint disorder” value ([2]; 3 mg, n=37, treatment period) was 14% and the incidence of myalgia ([2]; 3 mg, n=37, treatment period) was 16%. For the same compound, the “Depression, patients” value ([2]; 6 mg group) was “none”, the “Emotional lability, patients” value ([2]; 6 mg group) was 14% and the mild cheilitis ([2]; 6 mg group) was 27 patients. For the same compound, the mild dry skin ([2]; 6 mg group) was 17 patients, the moderate cheilitis ([2]; 6 mg group) was 6 patients and the moderate dry skin ([2]; 6 mg group) was 1 patient. For the same compound, the severe cheilitis ([2]; 6 mg group) was 1 patient, the incidence of arthralgia ([2]; 6 mg, n=36, treatment period) was 28% and the incidence of asthenia ([2]; 6 mg, n=36, treatment period) was 19%. For the same compound, the incidence of cheilitis ([2]; 6 mg, n=36, treatment period) was 94%, the “incidence of dry skin” value ([2]; 6 mg, n=36, treatment period) was 50% and the incidence of headache ([2]; 6 mg, n=36, treatment period) was 36%. For the same compound, the “incidence of joint disorder” value ([2]; 6 mg, n=36, treatment period) was 19%, the incidence of myalgia ([2]; 6 mg, n=36, treatment period) was 25% and the “patients withdrawing from either study due to adverse events” value ([2]; both studies, 7/277 patients including placebo) was 2.5%. For the same compound, the “effect on the PK or efficacy of NE/EE and NGM/EE oral contraceptives” value [3] was “does not affect”.
